Experiment [1] concerns Mus musculus. Kind of experiment: Percentage inhibition against LPS-induced TNF-alpha production in mice at a 10 mg/kg dose. In kind it is functional.
For experiment [2], the target named is Mitogen-activated protein kinase 14 (Mus musculus, UniProt P47811). The experiment in a line: Inhibition of murine p38 alpha kinase.
A further experiment addresses MAP kinase p38 (Homo sapiens, UniProt O15264+Q15759+Q16539+P53778). The experiment in a line: Inhibition of LPS-induced p38-related TNF-alpha production in human peripheral blood mononuclear cells. It counts as functional.
Experiment [3] relates to Mus musculus. The experiment in a line: Percentage inhibition against LPS-induced TNF-alpha production in mice at a 2 mg/kg dose. It counts as functional.
The subject of experiment [4] is Mus musculus. The experiment in a line: Percentage inhibition against LPS-induced TNF-alpha production in mice at a 10 mg/kg dose; Not active. In kind it is functional, organism-based. Details: dose 10 mg/kg.

Active and inactive are the calls of the source. The calls are words filed in the database; no cut-off is given here.

Mitogen-activated protein kinase 14, sequence (P47811 whole entry): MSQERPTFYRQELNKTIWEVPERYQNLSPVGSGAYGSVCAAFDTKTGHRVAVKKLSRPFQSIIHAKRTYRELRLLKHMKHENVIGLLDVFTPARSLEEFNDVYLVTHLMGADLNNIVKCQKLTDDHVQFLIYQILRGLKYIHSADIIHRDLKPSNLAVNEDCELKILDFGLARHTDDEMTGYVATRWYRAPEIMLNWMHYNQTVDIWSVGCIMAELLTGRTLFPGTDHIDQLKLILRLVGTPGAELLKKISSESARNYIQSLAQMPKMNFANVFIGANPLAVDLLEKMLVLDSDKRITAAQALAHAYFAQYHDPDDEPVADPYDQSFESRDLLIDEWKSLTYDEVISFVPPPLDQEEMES

For `COc1cc(N)[nH]c2nc(-c3ccc(F)cc3)c(-c3ccncc3)c1-2`, the inhibition in vivo at 10 mg/kg in the experiment with Mus musculus [1] came to 75%.
`Nc1ccn2c(-c3ccncc3)c(-c3ccc(F)cc3)nc2n1` registered a half-inhibitory concentration (IC50) in experiment [2] of 570 nM. This compound also returned an inhibition in vivo at 10 mg/kg in the experiment with Mus musculus [1] of 97%.
With `Fc1ccc(-c2[nH]c3ccc4[nH]c(Cc5ccccc5)nc4c3c2-c2ccncc2)cc1`, the concentration for half-maximal inhibition (IC50) in experiment [2] worked out at 22 nM. Also, at 10 mg/kg the inhibition in vivo in the experiment on Mus musculus [1] was 70%.
Turning to `CSc1nccc(-c2c(-c3ccccc3)nc3nc(N)ccn23)n1`, the IC50 in experiment [2] is 457 nM; on MAP kinase p38, 28 nM. In the experiment on Mus musculus [1], this compound showed an inhibition in vivo at 10 mg/kg of 23%.
In the same order, the values of `COc1nccc(-c2c(-c3ccccc3)nc3nc(N)ccn23)n1` are 210 nM, 90 nM and 87%.
On to `Nc1ccn2c(-c3ccncn3)c(-c3ccccc3)nc2n1`, for which the half-maximal inhibitory concentration (IC50) in experiment [2] came to 990 nM; against MAP kinase p38 it was 304 nM. The inhibition in vivo at 10 mg/kg in the experiment on Mus musculus [1] turned out to be 73%.
Regarding `C[C@@H](Nc1nccc(-c2c(-c3ccccc3)nc3nc(N)ccn23)n1)c1ccccc1`, the concentration for half-maximal inhibition (IC50) in experiment [2] came to 37 nM. Also, in the experiment on Mus musculus [1], the inhibition in vivo at 10 mg/kg came to 66%.
On to `C[C@H](Nc1nccc(-c2c(-c3ccccc3)nc3nc(N)ccn23)n1)c1ccccc1`, for which the IC50 in experiment [2] stood at 8 nM. Moreover, at 2 mg/kg the inhibition in vivo with Mus musculus [3] was 83%. Besides, in the experiment on Mus musculus [1], the inhibition in vivo at 10 mg/kg was determined as 100%.
Compound `COC[C@H](C)Nc1cc(-c2c(-c3ccccc3)nc3nc(N)ccn23)ccn1` returned an IC50 in experiment [2] of 2 nM. In the experiment on Mus musculus [1], this compound returned an inhibition in vivo at 10 mg/kg of 93%.
In experiment [2], `Nc1ccn2c(-c3ccnc(N[C@H]4CCCc5ccccc54)c3)c(-c3ccccc3)nc2n1` returned a half-inhibitory concentration (IC50) of 8 nM. Also, in the experiment on Mus musculus [4], the inhibition entry is “inactive”.
Consider `Nc1ccn2c(-c3ccnc(NCc4ccccc4)c3)c(-c3ccc(F)cc3)nc2n1`, for which the IC50 (in experiment [2]; on MAP kinase p38) was 6 nM throughout. In the experiment on Mus musculus [1], this compound showed an inhibition in vivo at 10 mg/kg of 42%.
On to `C[C@H](Nc1cc(-c2c(-c3ccccc3)nc3nc(N)ccn23)ccn1)c1ccccc1`, for which the IC50 in experiment [2] amounted to 1 nM; at MAP kinase p38 it was 2 nM. The inhibition in vivo at 2 mg/kg in the experiment with Mus musculus [3] came out at 34%. The same compound yielded an inhibition in vivo at 10 mg/kg in the experiment with Mus musculus [1] of 96%.
